Test results reported in patent publication US20070167353A1, “PRODRUG COMPOSITION” (priority 2003, published 2007).
Read-outs that look alike come from different tables or passages of the source.

Columns and labels:
physchem [1] = details: buffer, pH 7.4
in vitro [2] = details: human, plasma
in vitro [3] = details: human, Caco-2, pH 7.4
HPEPT1 [4] = target: T1, HPEPT1 (Homo sapiens, UniProt P46059); experiment: Inhibition of radiolabelled Gly-Sar uptake in DC5 cells overexpressing HPEPT1; format: cell-based; design: expressed in transfected cells; host or cells: HeLa cells overexpressing hPEPT1 (called 'HPEPT1 infected cells')
T1 sequence (P46059 1-708): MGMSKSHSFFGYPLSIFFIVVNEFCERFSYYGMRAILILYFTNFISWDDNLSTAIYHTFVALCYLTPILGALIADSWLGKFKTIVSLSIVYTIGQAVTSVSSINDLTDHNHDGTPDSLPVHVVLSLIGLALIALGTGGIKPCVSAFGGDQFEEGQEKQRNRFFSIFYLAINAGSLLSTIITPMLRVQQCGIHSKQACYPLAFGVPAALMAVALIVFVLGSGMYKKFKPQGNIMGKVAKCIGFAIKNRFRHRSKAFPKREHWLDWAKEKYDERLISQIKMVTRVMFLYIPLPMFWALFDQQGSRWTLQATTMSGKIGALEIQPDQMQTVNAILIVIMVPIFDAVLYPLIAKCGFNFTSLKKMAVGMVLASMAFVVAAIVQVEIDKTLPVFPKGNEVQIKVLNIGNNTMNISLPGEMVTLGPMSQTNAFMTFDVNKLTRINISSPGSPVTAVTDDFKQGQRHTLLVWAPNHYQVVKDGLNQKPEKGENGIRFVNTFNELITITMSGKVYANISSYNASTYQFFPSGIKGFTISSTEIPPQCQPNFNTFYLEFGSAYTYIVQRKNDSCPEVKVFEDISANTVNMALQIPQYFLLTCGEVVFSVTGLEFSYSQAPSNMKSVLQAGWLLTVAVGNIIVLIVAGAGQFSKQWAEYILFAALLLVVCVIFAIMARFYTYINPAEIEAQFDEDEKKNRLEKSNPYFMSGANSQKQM
Method: Amino acid prodrugs are tested for their interaction with the dipeptide transporter, HPEPT1, using tissue culture cells that are engineered to overexpress HPEPT1. In this example, the cells that overexpress HPEPT1, termed DC5, are a human meduloblastoma cell line that is stably transfected with a eukaryotic expression vector encoding HPEPT1. […] DC5 cells are plated at a density of 12,000 cells/well in 96-well tissue culture plates and allowed to grow for 2 days. The cells are washed once with 200 microliters of uptake buffer and aspirated. The plates are cooled to 4° C. and 25 ul of uptake buffer containing 125 nanomoles Gly-Sar (at a specific activity of 1 microcurie/micromole) is added. The uptake buffer also contains the prodrugs to be tested at concentrations ranging from 10 micromolar to 20 millimolar. The assay is initiated by placing the plate in a shaking water bath at 37° C. and is terminated after 10 min by rapid washing with multiple changes of 4° C. phosphate buffered saline (PBS). The radioactive Gly-Sar peptide that is transported by the hpept1 is extracted from the cell layer with 200 ul of a one to one mixture of methanol and water and is counted in 4 ml of CytoScint ES™ scintillation cocktail (ICN). The data are plotted as % Gly-Sar uptake of control (no competitive substrate) versus the competitive substrate concentration. […] Typically, values that are below 10 mM indicate that the drug interacts with transporter.

[5] = target: T2, biphenyl hydrolase-like enzyme (BPHL) (Homo sapiens, UniProt Q86WA6); format: biochemical
T2 sequence (Q86WA6 38-291): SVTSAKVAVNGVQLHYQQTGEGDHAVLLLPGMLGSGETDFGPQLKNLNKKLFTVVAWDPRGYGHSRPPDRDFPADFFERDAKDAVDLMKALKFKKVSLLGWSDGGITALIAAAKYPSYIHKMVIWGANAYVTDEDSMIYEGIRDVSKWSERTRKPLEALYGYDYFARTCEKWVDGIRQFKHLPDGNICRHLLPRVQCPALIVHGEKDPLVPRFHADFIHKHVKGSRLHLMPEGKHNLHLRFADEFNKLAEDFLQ

HPEPT1 [6] = target: T1, HPEPT1; details: human, pH 6
HeLa cells [7] = details: control cultures not overexpressing hpept1, 50 micromolar, pH 6.0, 45 minutes
[8] = target: T3, human dipeptide transporter, hPept1 (Homo sapiens, UniProt P46059); details: human, pH 6
T3 sequence (P46059 1-708): T1 sequence (P46059 1-708)

HeLa cells [9] = details: 1 mM prodrug, pH 6.0, 45 minutes
physchem [10] = details: buffer, pH 7.4; remark: listed apart in the source
in vitro [11] = details: human, Caco-2
[12] = Hydrolysis of gemcitabine prodrugs in phosphate buffer pH 7.4

Q: For `CC(C)[C@H](N)C(=O)OCC(CO)OCn1cnc2c(=O)nc(N)[nH]c21` (some centres unmarked) [Valganciclovir], which half-life (physchem [1]) is on record?
A: 16.5 ± 0.24 h

Q: What about the half-life (in vitro [2]) of the same compound?
A: 5.05 ± 0.3 h

Q: What about the half-life (in vitro [3]) of the same compound?
A: 0.545 ± 0.0117 h

Q: And the IC50 (HPEPT1 [4]; inhibition of Gly-Sar uptake, DC5 cells overexpressing HPEPT1, 10 min, 37° C., read-out: DC5 IC50)?
A: 5230 µM

Q: Which “% of Control (VACV)” value [5] does the source give for `CC(C)[C@H](N)C(=O)OCCOCn1cnc2c(=O)[nH]c(N)nc21` [Valacyclovir] here?
A: 100.0%

Q: What about the “Uptake (hPepT1)” value (HPEPT1 [6]) of the same compound?
A: 2.51 ± 0.28 nmole/mg/45 min

Q: What about the hPepT1/Control (HPEPT1 [6]) of the same compound?
A: 4.25

Q: What about the “Uptake Control” value (HeLa cells [7]) of the same compound?
A: 0.59 ± 0.06 nmole/mg/45 min

Q: What about the HeLa/hPEPT1 uptake [8] of the same compound?
A: 221.2 ± 8.1

Q: And the hPepT1/Control [8]?
A: 19.0

Q: What about the HeLa control uptake (HeLa cells [9]) of the same compound?
A: 11.6 ± 0.5 nmol/mg/45 min

Q: And the half-life (in vitro [2])?
A: 5.2 ± 0.41 h

Q: And the half-life (in vitro [3])?
A: 0.462 ± 0.01 h

Q: What about the half-life (physchem [10]) of the same compound?
A: 16.5 ± 0.24 h

Q: And the half-life (in vitro [11])?
A: 0.545 ± 0.0117 h

Q: What about the half-life [12] of the same compound?
A: 17.1 ± 0.19 h

Q: What about the IC50 (HPEPT1 [4]) of the same compound?
A: 423 µM
